Measurements from patent publication US6686366B1, “Compounds specific to adenosine A3 receptor and uses thereof” (OSI Pharmaceuticals, Inc., priority 1998, dated 2004).
Like-named read-outs stand apart in the source and are kept apart here.

Tests used:
[1] = target: A1 adenosine receptor (Homo sapiens, UniProt P30542); conditions: cited from earlier work
[2] = target: T1, human A1 adenosine receptor (Homo sapiens, UniProt P30542); assay: Displacement binding of [3H]CPX, yeast membranes expressing hA1R
T1 sequence (P30542 1-326): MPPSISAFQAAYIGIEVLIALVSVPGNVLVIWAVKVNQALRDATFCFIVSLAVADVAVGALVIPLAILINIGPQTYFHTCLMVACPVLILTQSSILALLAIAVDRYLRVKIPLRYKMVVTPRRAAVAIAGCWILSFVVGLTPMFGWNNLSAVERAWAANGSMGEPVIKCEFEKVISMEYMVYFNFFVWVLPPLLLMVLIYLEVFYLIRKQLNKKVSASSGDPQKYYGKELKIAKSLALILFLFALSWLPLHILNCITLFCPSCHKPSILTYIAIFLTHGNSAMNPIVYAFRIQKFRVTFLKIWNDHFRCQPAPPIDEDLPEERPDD

[3] = target: T2, human A3 receptor (Homo sapiens, UniProt P0DMS8); assay: Displacement binding of [3H]CPX, yeast membranes expressing hA3R
T2 sequence (P0DMS8 1-318): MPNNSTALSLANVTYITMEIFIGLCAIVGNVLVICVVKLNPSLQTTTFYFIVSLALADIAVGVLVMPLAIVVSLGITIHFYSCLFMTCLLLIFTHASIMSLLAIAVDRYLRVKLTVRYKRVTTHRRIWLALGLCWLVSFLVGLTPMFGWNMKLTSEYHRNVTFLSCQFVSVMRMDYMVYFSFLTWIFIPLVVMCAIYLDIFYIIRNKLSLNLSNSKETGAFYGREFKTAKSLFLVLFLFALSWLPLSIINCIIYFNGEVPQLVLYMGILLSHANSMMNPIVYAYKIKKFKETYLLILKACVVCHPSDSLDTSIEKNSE

[4] = target: T3, human adenosine A1 receptor (Homo sapiens, UniProt P30542); assay: Yeast β-Galactosidase reporter gene assay, inhibition of NECA-induced activity, strain CY12660
T3 sequence (P30542 1-326): T1 sequence (P30542 1-326)

[5] = target: T4, human A1 receptor subtype (Homo sapiens, UniProt P30542); assay: biochemical
T4 sequence (P30542 1-326): T1 sequence (P30542 1-326)

[6] = target: T5, human A2a receptor subtype (Homo sapiens, UniProt P29274); assay: Adenosine 2a receptor subtype competition radioligand binding, [3H]CGS-21680, HEK293 membranes; conditions: Table 13; concentration not given
T5 construct: expressed in transfected cells; host or cells: HEK-293 (Cadus clone #5), membranes
T5 sequence (P29274 whole entry): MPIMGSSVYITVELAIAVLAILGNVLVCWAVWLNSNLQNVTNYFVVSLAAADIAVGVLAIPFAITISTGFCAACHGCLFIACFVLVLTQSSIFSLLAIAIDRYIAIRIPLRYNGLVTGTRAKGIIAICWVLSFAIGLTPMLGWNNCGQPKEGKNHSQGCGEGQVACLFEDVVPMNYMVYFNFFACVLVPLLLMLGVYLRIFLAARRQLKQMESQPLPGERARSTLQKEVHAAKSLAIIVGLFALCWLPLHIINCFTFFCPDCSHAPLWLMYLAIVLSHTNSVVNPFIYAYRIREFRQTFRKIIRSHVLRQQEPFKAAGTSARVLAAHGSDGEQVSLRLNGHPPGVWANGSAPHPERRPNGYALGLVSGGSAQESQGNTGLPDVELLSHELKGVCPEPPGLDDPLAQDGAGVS

[7] = target: T6, human A3 receptor subtype (Homo sapiens, UniProt P0DMS8); assay: Adenosine 3 receptor competition radioligand binding, [125I]AB-MECA, HEK293 membranes
T6 sequence (P0DMS8 1-318): T2 sequence (P0DMS8 1-318)

[8] = target: T7, human A2b receptor subtype (Homo sapiens, UniProt P29275); assay: Adenosine 2b receptor subtype competition radioligand binding, [3H]DPCPX, HEK293 membranes; conditions: Table 13
T7 construct: expressed in transfected cells; host or cells: HEK293, membranes
T7 sequence (P29275 1-332): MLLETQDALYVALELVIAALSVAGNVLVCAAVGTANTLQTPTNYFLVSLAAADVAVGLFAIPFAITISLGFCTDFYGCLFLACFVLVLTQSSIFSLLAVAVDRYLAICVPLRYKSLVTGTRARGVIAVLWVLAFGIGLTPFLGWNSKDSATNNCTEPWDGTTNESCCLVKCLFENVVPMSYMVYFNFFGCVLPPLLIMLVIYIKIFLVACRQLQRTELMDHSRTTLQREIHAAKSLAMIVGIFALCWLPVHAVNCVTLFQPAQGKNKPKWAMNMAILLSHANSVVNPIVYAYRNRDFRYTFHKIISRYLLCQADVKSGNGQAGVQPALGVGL

[9] = target: T4, human A1 receptor subtype; conditions: Table 13; concentration not given
[10] = A1 Yeast IC50 (nM), Table 6, Effect of N6-Substituent
[11] = A1 Binding Ki (nM), Table 6, Effect of N6-Substituent
[12] = A1 Binding Ki (nM), Table 10, Effect of N6-Substituent
[13] = A1 Yeast IC50 (nM), Table 10, Effect of N6-Substituent

| Structure (SMILES) | Ki [5, 12] [nM] | IC50 [4, 13] [nM] | other results |
| --- | --- | --- | --- |
| CC(Cc1ccccc1)Nc1ncnc2c1ncn2[C@@H]1O[C@H](CO)[C@@H](O)[C@H]1O (single isomer, unassigned; (-)) [PIA, (−)-N6-(2-phenylisopropyl)-adenosine] |  |  | reported affinity [1]: approximately 50 nM |
| O=c1nc2[nH]c3ccccc3nc-2c(=O)[nH]1 [Alloxazine] |  |  | IC50 [2]: 1070 nM; IC50 [3]: 8220 nM |
| Cc1[nH]c2nc(-c3ccccc3)nc(NC3CCC(NS(C)(=O)=O)CC3)c2c1C (stereo not shown) [Compound 604] |  |  | IC50 [4, 10]: > 10000 nM |
| CC(=O)NC1CCC(Nc2nc(-c3ccccc3)nc3[nH]c(C)c(C)c23)CC1 (stereo not shown) [Compound 605] |  |  | Ki [5, 11]: > 10000 nM; IC50 [4, 10]: > 10000 nM |
| Cc1[nH]c2nc(-c3ccccc3)nc(NC3CCC(OC(=O)c4ccccc4)CC3)c2c1C (stereo not shown) [Compound 606] |  |  | IC50 [4]: > 10000 nM |
| Cc1[nH]c2nc(-c3ccccc3)nc(NC3CCC(OC(=O)c4ccccc4)CC3)c2c1C (stereo not shown) [Compound 611] |  |  | IC50 ([4]; read-out: A1 Yeast IC50, Table 6, Effect of N6-Substituent): > 10000 nM |
| Cc1[nH]c2nc(-c3ccccc3)nc(N[C@@H]3CCC[C@H]3O)c2c1C [Compound 614] |  |  | Ki [5, 11]: 32.1 nM |
| Cc1[nH]c2nc(C3CCCC3)nc(N[C@H]3CC[C@H](O)CC3)c2c1C [Compound 703] |  |  | Ki ([5]; A1 Binding Ki (nM), Table 7, Effect of C2-Substituent): 444 nM; IC50 ([4]; A1 Yeast IC50 (nM), Table 7, Effect of C2-Substituent): > 10000 nM |
| Cc1[nH]c2nc(-c3ccc(F)cc3)nc(NC3CCC(O)CC3)c2c1C (stereo not shown) [Compound 707] |  |  | Ki [5]: 62.8 nM |
| Cc1c(C)n(C)c2nc(-c3ccccc3)nc(N[C@H]3CC[C@H](O)CC3)c12 [Compound 800] |  |  | Ki [5]: 3310 nM; IC50 [4]: > 10000 nM |
| Cc1c(C)n(C(C)c2ccccc2)c2nc(-c3ccccc3)nc(NCC(C)C)c12 (stereo not shown) [Compound 903] |  |  | Ki ([5]; A1 Binding Bi (nM), Table 9): 35.3 nM |
| CC(=O)NC(C)CNc1nc(-c2ccccc2)nc2[nH]c(C)c(C)c12 (stereo not shown) [Compound 1104] |  |  | IC50 ([4]; A1 Yeast IC50 (nM), Table 11, Effect of N6-Substituent): 58.7 nM |
| CNC(=O)NCCCNc1nc(-c2ccccc2)nc2[nH]c(C)c(C)c12 [Compound 1310] |  |  | Binding A2a, value given in % [6]: 76% |
| CC(=O)NCCCCNc1nc(-c2ccccc2)nc2[nH]c(C)c(C)c12 [Compound 1311] |  |  | Ki [7]: 5.3 nM; Ki [8]: 736 nM |
| Cc1[nH]c2nc(-c3ccccc3)nc(NCCNC(=O)C3(N)CC3)c2c1C [Compound 1313] |  |  | Binding A1, value printed in % [9]: 30%; Binding A2a, value given in % [6]: 65% |
| CC(=O)NCCNc1nc(-c2ccccc2)nc2[nH]c(COc3ccccc3)cc12 [Example 17, 4-(2-acetylaminoethyl)amino-6-phenoxymethyl-2-phenyl-7H-pyrrolo[2,3d]pyrimidine] |  |  | melting point: 196 to 197 °C |

Now from value to compound, other results behind:

| Ki [5, 12] [nM] | IC50 [4, 13] [nM] | Structure (SMILES) | other results |
| --- | --- | --- | --- |
| 54.4 | 1870 | Cc1[nH]c2nc(-c3ccccc3)nc(NCCNC=O)c2c1C [Compound 1001] |  |
| 26.7 | 196 | CCC(=O)NCCNc1nc(-c2ccccc2)nc2[nH]c(C)c(C)c12 [Compound 1003] |  |
| 32.8 | 546 | Cc1[nH]c2nc(-c3ccccc3)nc(NCCNC(=O)C3CC3)c2c1C [Compound 1004] |  |
| 147 | 3970 | Cc1[nH]c2nc(-c3ccccc3)nc(NCCNC(=O)C(C)C)c2c1C [Compound 1005] |  |
| 152 | 2920 | CC(=O)C(=O)NCCNc1nc(-c2ccccc2)nc2[nH]c(C)c(C)c12 [Compound 1006] |  |
| 692 |  | Cc1[nH]c2nc(-c3ccccc3)nc(NCCNS(C)(=O)=O)c2c1C [Compound 1007] |  |
| 93.1 | 3220 | Cc1[nH]c2nc(-c3ccccc3)nc(NCCNC(=O)CCC(=O)O)c2c1C [Compound 1008] |  |
| 475 |  | Cc1[nH]c2nc(-c3ccccc3)nc(NCCNC(=O)CCN)c2c1C [Compound 1009] |  |
| 675 | 9380 | CC(=O)NCCCNc1nc(-c2ccccc2)nc2[nH]c(C)c(C)c12 [Compound 1010] |  |
| 122 | 2070 | CC(=O)OCCNc1nc(-c2ccccc2)nc2[nH]c(C)c(C)c12 [Compound 1011] |  |
| 270 | 3010 | CCC(=O)NCCCNc1nc(-c2ccccc2)nc2[nH]c(C)c(C)c12 [Compound 1013] |  |
| 385 | 2000 | Cc1[nH]c2nc(-c3ccccc3)nc(NCCO)c2c1C [Compound 1014] |  |
| 176 | 5050 | Cc1[nH]c2nc(-c3ccccc3)nc(NCCCCO)c2c1C [Compound 1016] |  |
